Literature values in patent publication US20230404934A1, “ON DEMAND AND LONG-TERM DRUG DELIVERY FROM DEGRADABLE NANOCAPSULES” (University of Maryland, Baltimore County, priority 2020, published 2023).

Conditions: topical to the eye

In the case of `Cc1ccc(=O)n(-c2ccccc2)c1` [pirfenidone, 5-methyl-1-phenylpyridin-2-one], the “amount in the back of the eye after topical administration” value is given as “no measurable amounts in the back of the eye” and the “washout from the eye after topical administration” value is given as “washes out very quickly, within minutes”.
